The values below come from patent US8476298B2 (Exelixis, Inc., priority 2003, dated 2013).

For experiment [1], the target named is T1, Flt-4 (baculovirus expressed human Flt-4 kinase domain D725-R1298) (Homo sapiens, UniProt P35916).
T1 construct: human Flt-4 kinase domain D725-R1298; host or cells: baculovirus expression
The experiment is described as follows: flt-4 Alphascreen Tyrosine Kinase assay.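 Also: AlphaScreen chemiluminescence read-out of biotinylated poly(Glu,Tyr) 4:1 phosphorylation via streptavidin donor and PY100 anti-phosphotyrosine acceptor beads, ATP near KM, 1 hr kinase reaction, 10-point dose-response.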 In kind it is biochemical. (In general: Alpha assays give light when donor and acceptor beads are brought close together.)

The target of experiment [2] is T2, KDR (baculovirus expressed human KDR kinase domain D807-V1356) (Homo sapiens, UniProt P35968).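 Also: Luciferase-coupled chemiluminescent kinase assay, activity read as percent ATP left after 4 h reaction at ambient temperature, ATP near KM, 10-point dose-response in 384-well plates.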
T2 construct: human KDR kinase domain D807-V1356; host or cells: baculovirus expression
T2 sequence (P35968 807-1356): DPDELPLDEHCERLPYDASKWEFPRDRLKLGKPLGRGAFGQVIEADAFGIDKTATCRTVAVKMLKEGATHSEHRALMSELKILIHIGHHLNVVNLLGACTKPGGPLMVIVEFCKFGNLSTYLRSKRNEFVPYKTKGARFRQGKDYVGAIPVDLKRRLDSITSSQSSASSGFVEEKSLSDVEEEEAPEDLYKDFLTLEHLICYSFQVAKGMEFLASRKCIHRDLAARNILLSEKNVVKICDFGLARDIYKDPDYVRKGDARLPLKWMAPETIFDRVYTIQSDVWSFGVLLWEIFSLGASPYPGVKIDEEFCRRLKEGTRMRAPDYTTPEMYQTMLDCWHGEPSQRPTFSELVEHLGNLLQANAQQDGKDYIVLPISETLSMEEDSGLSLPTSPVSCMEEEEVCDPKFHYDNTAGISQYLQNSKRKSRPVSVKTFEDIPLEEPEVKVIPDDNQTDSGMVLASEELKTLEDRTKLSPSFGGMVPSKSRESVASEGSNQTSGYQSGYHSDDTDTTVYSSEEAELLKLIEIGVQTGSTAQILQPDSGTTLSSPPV
The experiment is described as follows: biochemical.

For experiment [3], the target named is c-Kit kinase (Homo sapiens, UniProt P10721). The experiment is described as follows: c-Kit AlphaScreen kinase assay.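 Also: c-Kit kinase phosphorylating biotinylated poly(Glu,Tyr), ATP near its KM, 1 h reaction at ambient temperature, AlphaScreen chemiluminescence with streptavidin donor and anti-phosphotyrosine acceptor beads, 10-point inhibitor titration.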 In kind it is biochemical.
c-Kit kinase, sequence (P10721 26-976): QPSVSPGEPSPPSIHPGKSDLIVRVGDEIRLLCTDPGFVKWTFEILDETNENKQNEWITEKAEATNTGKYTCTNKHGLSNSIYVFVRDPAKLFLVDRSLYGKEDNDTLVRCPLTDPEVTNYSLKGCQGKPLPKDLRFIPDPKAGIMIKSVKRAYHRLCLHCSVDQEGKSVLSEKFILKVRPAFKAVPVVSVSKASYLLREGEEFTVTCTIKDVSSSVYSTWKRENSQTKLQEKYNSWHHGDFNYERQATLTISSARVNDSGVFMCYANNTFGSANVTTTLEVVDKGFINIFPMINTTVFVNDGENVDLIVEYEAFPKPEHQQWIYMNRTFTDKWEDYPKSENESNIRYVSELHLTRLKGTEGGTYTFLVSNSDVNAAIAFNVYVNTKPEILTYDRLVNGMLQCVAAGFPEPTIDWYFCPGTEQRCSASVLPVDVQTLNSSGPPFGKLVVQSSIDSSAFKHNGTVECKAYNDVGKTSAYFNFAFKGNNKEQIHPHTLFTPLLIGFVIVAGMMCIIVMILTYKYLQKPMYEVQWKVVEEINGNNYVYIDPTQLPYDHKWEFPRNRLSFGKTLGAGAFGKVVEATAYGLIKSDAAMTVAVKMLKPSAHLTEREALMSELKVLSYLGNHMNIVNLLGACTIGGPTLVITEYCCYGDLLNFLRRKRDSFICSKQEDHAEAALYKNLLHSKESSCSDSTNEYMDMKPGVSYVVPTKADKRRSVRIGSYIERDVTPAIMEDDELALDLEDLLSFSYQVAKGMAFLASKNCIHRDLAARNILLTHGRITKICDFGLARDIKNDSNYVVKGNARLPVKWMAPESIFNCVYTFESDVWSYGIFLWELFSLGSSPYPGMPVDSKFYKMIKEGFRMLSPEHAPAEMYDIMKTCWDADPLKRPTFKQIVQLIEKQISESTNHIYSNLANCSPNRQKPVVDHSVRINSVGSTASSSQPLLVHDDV
For experiment [4], the target named is T3, c-Met (baculovirus expressed human c-Met kinase domain P948-S1343) (Homo sapiens, UniProt P08581).
T3 construct: human c-Met kinase domain P948-S1343; host or cells: baculovirus expression
T3 sequence (P08581 1011-1343 limits assumed): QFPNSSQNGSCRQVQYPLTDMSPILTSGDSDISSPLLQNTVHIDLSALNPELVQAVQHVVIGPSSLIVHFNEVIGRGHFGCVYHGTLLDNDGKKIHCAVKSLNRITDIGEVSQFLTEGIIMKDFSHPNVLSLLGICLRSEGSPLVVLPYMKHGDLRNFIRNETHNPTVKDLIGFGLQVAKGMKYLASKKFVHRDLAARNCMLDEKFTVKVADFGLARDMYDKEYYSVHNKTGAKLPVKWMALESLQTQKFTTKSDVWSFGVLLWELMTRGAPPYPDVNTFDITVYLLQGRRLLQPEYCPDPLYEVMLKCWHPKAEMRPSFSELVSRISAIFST
The experiment is described as follows: c-Met Luciferase-Coupled Chemiluminescent Kinase assay (LCCA).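 Also: kinase activity read as percent ATP left after reaction, by luciferase-luciferin chemiluminescence, with 1 µM ATP and 1 µM poly-EY substrate, 2 h at ambient temperature, 10-point dose-response.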 The format is biochemical.

The target of experiment [5] is T4, Flt-3 (baculovirus expressed human Flt-3 kinase domain R571-S993) (Homo sapiens, UniProt P36888).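 Also: Luciferase-coupled chemiluminescent kinase assay, activity read as percent ATP left after a 3 h reaction at room temperature, ATP near KM, 10-point dose-response.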
T4 construct: human Flt-3 kinase domain R571-S993; host or cells: baculovirus expression
T4 sequence (P36888 571-993): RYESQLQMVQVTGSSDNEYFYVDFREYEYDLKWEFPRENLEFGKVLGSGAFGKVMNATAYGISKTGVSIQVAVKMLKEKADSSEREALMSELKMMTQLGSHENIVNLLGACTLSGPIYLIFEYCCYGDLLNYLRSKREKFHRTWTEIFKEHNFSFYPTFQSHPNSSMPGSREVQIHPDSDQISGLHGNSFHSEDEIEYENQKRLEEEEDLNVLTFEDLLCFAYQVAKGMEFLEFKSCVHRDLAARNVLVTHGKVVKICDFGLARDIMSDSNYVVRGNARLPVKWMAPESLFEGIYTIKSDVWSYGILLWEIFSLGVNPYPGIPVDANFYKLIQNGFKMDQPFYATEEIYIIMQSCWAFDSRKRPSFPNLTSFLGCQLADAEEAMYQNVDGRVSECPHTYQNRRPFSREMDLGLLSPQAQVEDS
The experiment is described as follows: biochemical. The note with it: read-out: flt3 IC50.
Protocol: Kinase activity and compound inhibition are investigated using one or more of the three assay formats described below. The ATP concentrations for each assay are selected to be close to the Michaelis-Menten constant (KM) for each individual kinase. Dose-response experiments are performed at 10 different inhibitor concentrations in a 384-well plate format.
Biochemical activity for flt-3 was assessed using a Luciferase-Coupled Chemiluminescent Kinase assay (LCCA) format. Kinase activity was measured as the percent ATP remaining following the kinase reaction. Remaining ATP was detected by luciferase-luciferin-coupled chemiluminescence. […] The mixture is incubated at ambient temperature for 3 hours after which 20 uL luciferase-luciferin mix is added and the chemiluminescent signal read using a Wallac Victor^2 reader.

[6] abbreviates: Table 4, inhibition as IC50 class.
The mark [7] stands for this setting: Table 4, inhibition as IC50 class, read-out: flt4 IC50.

pIC50: −log10 of the molar value. Like-named read-outs stand apart in the source and are kept apart here.

T1 sequence (P35916 725-1298 isoform P35916-1): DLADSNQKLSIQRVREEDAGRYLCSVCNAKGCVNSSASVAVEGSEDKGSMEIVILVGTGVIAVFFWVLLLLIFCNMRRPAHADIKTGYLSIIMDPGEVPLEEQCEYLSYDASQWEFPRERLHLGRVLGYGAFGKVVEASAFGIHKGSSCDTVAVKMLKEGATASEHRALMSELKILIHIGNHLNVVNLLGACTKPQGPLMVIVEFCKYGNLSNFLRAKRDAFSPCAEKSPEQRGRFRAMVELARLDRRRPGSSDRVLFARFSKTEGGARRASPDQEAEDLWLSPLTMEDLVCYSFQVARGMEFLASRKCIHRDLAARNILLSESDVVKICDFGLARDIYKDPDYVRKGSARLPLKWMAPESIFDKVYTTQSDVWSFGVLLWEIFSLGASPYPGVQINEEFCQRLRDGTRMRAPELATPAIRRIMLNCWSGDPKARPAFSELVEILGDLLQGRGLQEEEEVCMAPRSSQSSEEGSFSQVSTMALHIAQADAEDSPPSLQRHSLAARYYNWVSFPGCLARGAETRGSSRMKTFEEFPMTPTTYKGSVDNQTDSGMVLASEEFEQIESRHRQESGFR

On to `COc1cc2c(Oc3ccc(NC(=S)NC(=O)Cc4ccccc4)cc3F)ncnc2cc1OCC1C[C@H]2CNC[C@H]2C1` (stereo partly drawn) [Entry 1], for which the negative-log IC50 (pIC50) in experiment [1] (read-out: flt4 IC50) and in experiment [2] was > 7.30 in each case.

Turning to `COc1cc2c(Oc3ccc(NC(=S)NC(=O)Cc4ccccc4)cc3F)ncnc2cc1OCC1C[C@@H]2CN(C)C[C@@H]2C1` (stereo partly drawn) [Entry 2], the pIC50 in experiment [3], in experiment [1] (read-out: flt4 IC50), in experiment [4] and in experiment [2] was > 7.30 in each case.

For the compound `COc1cc2nccc(Oc3ccc(NC(=O)C(=O)N[C@@H]4CCc5ccccc5C4)cc3F)c2cc1OC` [Entry 71], the negative logarithm of the IC50 (pIC50) (in general, −log10 of the IC50, conventionally taken in molar units) in experiment [3] was 6.30 to 7.30; in experiment [1] (read-out: flt4 IC50), 5.30 to 6.30; in experiment [4], 6.30 to 7.30; in experiment [2] it was < 5.30.

As to `COc1cc2nccc(Oc3ccc(NC(=O)C(=O)NCCC4CCCN4C)cc3F)c2cc1OC` (stereo not drawn) [Entry 72], the negative-log IC50 (pIC50) in experiment [3], in experiment [5] and in experiment [4] was 5.30 to 6.30 in each case.

For the compound `COc1cc2nccc(Oc3ccc(NC(=O)C(=O)NCCOc4ccccc4)cc3F)c2cc1OC` [Entry 73], the pIC50 in experiment [3] is 6.30 to 7.30; in experiment [1] (read-out: flt4 IC50) it was 5.30 to 6.30; in experiment [4], 6.30 to 7.30; in experiment [2], 6.30 to 7.30.

On to `COc1cc2nccc(Oc3ccc(N4CC(Cc5ccccc5)N(S(=O)(=O)c5ccc(C)cc5)C4=O)cc3)c2cc1OC` (stereo not drawn) [Example 112, 1-(4-{[6,7-bis(methyloxy)quinolin-4-yl]oxy}phenyl)-3-[(4-methylphenyl)sulfonyl]-4-(phenylmethyl)imidazolidin-2-one], for which the pIC50 in experiment [3] is 6.30 to 7.30; in experiment [5] it was 5.30 to 6.30; in experiment [1] (read-out: flt4 IC50), 5.30 to 6.30; in experiment [4], 6.30 to 7.30; in experiment [2] it was 5.30 to 6.30.

`CCOc1ccc(CCNC(=O)C(=O)Nc2ccc(Oc3ccnc4cc(OCC5CCNCC5)c(OC)cc34)c(F)c2)cc1` [Example 167, N-[2-(4-Ethoxy-phenyl)-ethyl]-N′-{3-fluoro-4-[6-methoxy-7-(piperidin-4-ylmethoxy)-quinolin-4-yloxy]-phenyl}-oxalamide] had a pIC50 in experiment [3] (setting [6]) of 6.30 to 7.30.

`COc1cc2c(Oc3ccc(NC(=O)C(=O)NC4CCc5ccccc54)cc3F)ccnc2cc1OCC1CCNCC1` (stereo not drawn) [Example 177, N-{3-Fluoro-4-[6-methoxy-7-(piperidin-4-ylmethoxy)-quinolin-4-yloxy]-phenyl}-N′-indan-1-yl-oxalamide]: the negative-log IC50 (pIC50) in experiment [3] (setting [6]) was > 7.30.

As for `COc1cc2c(Oc3ccc(NC(=O)C(=O)N[C@@H](C)c4ccccc4)cc3F)ccnc2cc1OCC1CCNCC1` [Example 184, N-{3-Fluoro-4-[6-methoxy-7-(piperidin-4-ylmethoxy)-quinolin-4-yloxy]-phenyl}-N′-(1S-phenyl-ethyl)-oxalamide], the negative logarithm of the IC50 (pIC50) in experiment [3] (setting [6]) was > 7.30.

With `COc1cc2c(Oc3ccc(NC(=O)C(=O)NCc4ccc(F)c(C(F)(F)F)c4)cc3F)ccnc2cc1OCC1CCNCC1` [Example 216, N-[3-fluoro-4-({6-(methyloxy)-7-[(piperidin-4-ylmethyl)oxy]quinolin-4-yl}oxy)phenyl]-N′-{[4-fluoro-3-(trifluoromethyl)phenyl]methyl}ethanediamide], the pIC50 was 6.30 to 7.30 in experiment [3] (setting [6]); > 7.30 in experiment [5] (setting [6]); > 7.30 in experiment [1] (setting [7]); > 7.30 in experiment [4] (setting [6]); > 7.30 in experiment [2] (setting [6]).

As to `COc1cc2c(Oc3ccc(NC(=O)C(=O)NCc4cc(Cl)cc(Cl)c4)cc3F)ccnc2cc1OCC1CCNCC1` [Example 217, N-[(3,5-dichlorophenyl)methyl]-N′-[3-fluoro-4-({6-(methyloxy)-7-[(piperidin-4-ylmethyl)oxy]quinolin-4-yl}oxy)phenyl]ethanediamide], the pIC50 in experiment [3] (setting [6]), in experiment [5] (setting [6]), in experiment [1] (setting [7]), in experiment [4] (setting [6]) and in experiment [2] (setting [6]) was > 7.30 throughout.

For `COc1cc2c(Oc3ccc(NC(=O)C(=O)NCCc4ccc(Cl)c(Cl)c4)cc3F)ccnc2cc1OCC1CCNCC1` [Example 223, N-[2-(3,4-dichlorophenyl)ethyl]-N′-[3-fluoro-4-({6-(methyloxy)-7-[(piperidin-4-ylmethyl)oxy]quinolin-4-yl}oxy)phenyl]ethanediamide], the pIC50 in experiment [3] (setting [6]), in experiment [5] (setting [6]), in experiment [4] (setting [6]) and in experiment [2] (setting [6]) was > 7.30 each time.

For `COc1cc2nccc(Oc3ccc(NC(=O)C(=O)NCC(c4ccccc4)N(C)C)cc3F)c2cc1OC` (stereo not drawn) [Example 235, N-(4-{[6,7-bis(methyloxy)quinolin-4-yl]oxy}-3-fluorophenyl)-N′-[2-(dimethylamino)-2-phenylethyl]ethanediamide], the pIC50 in experiment [3] (setting [6]) is 6.30 to 7.30; in experiment [5] (setting [6]), > 7.30; in experiment [4] (setting [6]) it was 6.30 to 7.30; in experiment [2] (setting [6]), 6.30 to 7.30.

On to `COc1ccc(CNC(=O)C(=O)Nc2ccc(Oc3ccnc4cc(OCC5CCN(C)CC5)c(OC)cc34)c(F)c2)cc1` [Example 247, N-{3-fluoro-4-[(6-(methyloxy)-7-{[(1-methylpiperidin-4-yl)methyl]oxy}quinolin-4-yl)oxy]phenyl}-N′-{[4-(methyloxy)phenyl]methyl}ethanediamide], for which the negative logarithm of the IC50 (pIC50) in experiment [3] (setting [6]) was > 7.30; in experiment [5] (setting [6]), 6.30 to 7.30; in experiment [4] (setting [6]), > 7.30; in experiment [2] (setting [6]), 6.30 to 7.30.

Turning to `COc1cc2c(Oc3ccc(NC(=O)C(=O)NCC(O)c4ccccc4)cc3F)ccnc2cc1OCC1CCNCC1` (stereo not drawn) [Example 251, N-[3-fluoro-4-({6-(methyloxy)-7-[(piperidin-4-ylmethyl)oxy]quinolin-4-yl}oxy)phenyl]-N′-(2-hydroxy-2-phenylethyl)ethanediamide], the pIC50 in experiment [3] (setting [6]), in experiment [5] (setting [6]), in experiment [4] (setting [6]) and in experiment [2] (setting [6]) was 6.30 to 7.30 in each case.

For `CC[C@H](NC(=O)C(=O)Nc1ccc(Oc2ccnc3cc(OCC4CCNCC4)c(OC)cc23)c(F)c1)c1ccccc1` [Example 255, N-[3-fluoro-4-({6-(methyloxy)-7-[(piperidin-4-ylmethyl)oxy]quinolin-4-yl}oxy)phenyl]-N′-[(1S)-1-phenylpropyl]ethanediamide], the negative logarithm of the IC50 (pIC50) in experiment [3] (setting [6]) was 5.30 to 6.30; in experiment [5] (setting [6]), 6.30 to 7.30; in experiment [4] (setting [6]), > 7.30; in experiment [2] (setting [6]), 6.30 to 7.30.

As for `COc1cc2c(Oc3ccc(NC(=O)C(=O)NCc4cc(C(F)(F)F)cc(C(F)(F)F)c4)cc3F)ccnc2cc1OCC1CCNCC1` [Example 272, N-{[3,5-bis(trifluoromethyl)phenyl]methyl}-N′-[3-fluoro-4-({6-(methyloxy)-7-[(piperidin-4-ylmethyl)oxy]quinolin-4-yl}oxy)phenyl]ethanediamide], the pIC50 in experiment [3] (setting [6]) is 5.30 to 6.30; in experiment [5] (setting [6]) it was 6.30 to 7.30; in experiment [4] (setting [6]), > 7.30; in experiment [2] (setting [6]), > 7.30.

With `COc1cc2c(Oc3ccc(NC(=O)C(=O)NCc4cnccn4)cc3F)ccnc2cc1OCC1CCNCC1` [Example 273, N-[3-fluoro-4-({6-(methyloxy)-7-[(piperidin-4-ylmethyl)oxy]quinolin-4-yl}oxy)phenyl]-N′-(pyrazin-2-ylmethyl)ethanediamide], the negative-log IC50 (pIC50) in experiment [3] (setting [6]) is 5.30 to 6.30; in experiment [5] (setting [6]) it was 6.30 to 7.30; in experiment [4] (setting [6]) it was 6.30 to 7.30; in experiment [2] (setting [6]) it was 5.30 to 6.30.

Regarding `COc1cc2nccc(Oc3ccc(NC(=O)C4(C(=O)Nc5ccc(F)cc5)CC4)cc3)c2cc1OC` [Example 289, N-(4-{[6,7-bis(methyloxy)quinolin-4-yl]oxy}phenyl)-N′-(4-fluorophenyl)cyclopropane-1,1-dicarboxamide], in experiment [1], the negative logarithm of the IC50 (pIC50) was 8.25.

On to `COc1cc2nccc(Oc3ncc(NC(=O)C4(C(=O)Nc5ccccc5)CC4)cc3Cl)c2cc1OC` [Example 305, N-(6-{[6,7-bis(methyloxy)quinolin-4-yl]oxy}-5-chloropyridin-3-yl)-N′-phenylcyclopropane-1,1-dicarboxamide], for which the pIC50 is 6.30 to 7.30 in experiment [3], > 7.30 in experiment [5], > 7.30 in experiment [4] and 6.30 to 7.30 in experiment [2].

For `COc1cc2nccc(Oc3ccc(NC(=O)C4(C(=O)Nc5ccc(F)cc5)CC4)cc3F)c2cc1OC` [Example 319, N-(4-{[6,7-bis(methyloxy)quinolin-4-yl]oxy}-3-fluorophenyl)-N′-(4-fluorophenyl)cyclopropane-1,1-dicarboxamide], the negative-log IC50 (pIC50) in experiment [3], in experiment [5] and in experiment [1] (read-out: flt4 IC50) was > 7.30 throughout.

`COc1cc2c(Oc3ccc(NC(=O)C4(C(=O)Nc5ccc(F)cc5)CC4)cc3)ccnc2cc1OCCCN1CCOCC1` [Example 335, N-(4-fluorophenyl)-N′-[4-({6-(methyloxy)-7-[(3-morpholin-4-ylpropyl)oxy]quinolin-4-yl}oxy)phenyl]cyclopropane-1,1-dicarboxamide]: the pIC50 in experiment [3], in experiment [5], in experiment [1] (read-out: flt4 IC50) and in experiment [2] was > 7.30 in each case.
